Results taken from patent US9113629B2, “4-amino-6-(4-substituted-phenyl)-picolinates and 6-amino-2-(4-substituted-phenyl)-pyrimidine-4-carboxylates and their use as herbicides” (DOW AGROSCIENCES LLC, priority 2013, dated 2015).
Where two headings read alike, the source gives them in different places.

Tests used:
LAMSS = test: Post-emergent Test III, herbicidal activity in wheat and barley; type: in vivo; conditions: for GR50 LAMSS / GR80 LAMSS: probit analysis; for pest or weed control at 35 g/ha: 35 g ai/ha; for pest or weed control at 70 g/ha: 70 g ai/ha
How it was run: (§1)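 Plants at the second to third true-leaf stage, grown in a greenhouse at about 18/17 °C with a 14 h photoperiod, were sprayed post-emergence at 187 L/ha with the high rate and ½× to 1/16× serial dilutions in an acetone/DMSO/crop-oil/surfactant carrier. Injury was rated visually at 21 d on a 0–100% scale, and GR20–GR90 were derived by probit analysis.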

[1] = test system: VERPE: bird's-eye speedwell (veronica persica); test: as above; type: in vivo; conditions: Table 8, 21 d; for GR50 VERPE: dose for 50 percent growth reduction; for GR50 VERPE / GR80 VERPE: probit analysis; for GR80 VERPE: dose for 80 percent growth reduction; for pest or weed control at 35 g/ha / pest or weed control at 70 g/ha: Veronica persica, post-emergence, 504 h, post-emergent, read-out: Visual Growth Reduction (%) 21 Days After Application VERPE; for pest or weed control at 35 g/ha: 35 g ai/ha; for pest or weed control at 70 g/ha: 70 g ai/ha
How it was run: as §1

[2] = test system: HORSS: barley, including spring and winter (Hordeum vulgare); test: as above; type: in vivo; conditions: Table 8, 21 d; for pest or weed control at 35 g/ha / pest or weed control at 70 g/ha: Hordeum vulgare, post-emergence, 504 h, post-emergent, read-out: Visual Growth Reduction (%) 21 Days After Application HORSS; for pest or weed control at 35 g/ha: 35 g ai/ha; for pest or weed control at 70 g/ha: 70 g ai/ha; for GR20 HORSS: dose for 20 percent growth reduction, probit analysis
How it was run: as §1

[3] = test system: TRZSS: wheat, including spring and winter (Triticum aestivum); test: as above; type: in vivo; conditions: Table 8, 21 d; for GR20 TRZSS: dose for 20 percent growth reduction, probit analysis; for pest or weed control at 35 g/ha / pest or weed control at 70 g/ha: Triticum aestivum, post-emergence, 504 h, post-emergent, read-out: Visual Growth Reduction (%) 21 Days After Application TRZSS; for pest or weed control at 35 g/ha: 35 g ai/ha; for pest or weed control at 70 g/ha: 70 g ai/ha
How it was run: as §1

[4] = test system: SASKR: Russian thistle (Salsola iberica); test: as above; type: in vivo; conditions: Table 8, 21 d; for pest or weed control at 35 g/ha / pest or weed control at 70 g/ha: Salsola tragus, post-emergence, 504 h, post-emergent, read-out: Visual Growth Reduction (%) 21 Days After Application SASKR; for pest or weed control at 35 g/ha: 35 g ai/ha; for pest or weed control at 70 g/ha: 70 g ai/ha; for GR50 SASKR: dose for 50 percent growth reduction; for GR50 SASKR / GR80 SASKR: probit analysis; for GR80 SASKR: dose for 80 percent growth reduction
How it was run: as §1

[5] = test system: VIOSS: wild pansy (Viola tricolor), field violet (Viola arvensis); test: as above; type: in vivo; conditions: Table 8, 21 d; for GR50 VIOSS: dose for 50 percent growth reduction; for GR50 VIOSS / GR80 VIOSS: probit analysis; for GR80 VIOSS: dose for 80 percent growth reduction; for pest or weed control at 35 g/ha / pest or weed control at 70 g/ha: Viola tricolor, post-emergence, 504 h, post-emergent, read-out: Visual Growth Reduction (%) 21 Days After Application VIOSS; for pest or weed control at 35 g/ha: 35 g ai/ha; for pest or weed control at 70 g/ha: 70 g ai/ha
How it was run: as §1

[6] = test system: MATSS: scented mayweed (Matricaria chamomilla), pineappleweed (Matricaria matricarioides); test: as above; type: in vivo; conditions: for pest or weed control at 35 g/ha: 35 g ai/ha; for pest or weed control at 70 g/ha: 70 g ai/ha; for GR50 MATSS / GR80 MATSS: probit analysis
How it was run: as §1

[7] = test system: KCHSC: kochia (Kochia scoparia); test: as above; type: in vivo; conditions: for pest or weed control at 35 g/ha: 35 g ai/ha; for pest or weed control at 70 g/ha: 70 g ai/ha; for GR50 KCHSC / GR80 KCHSC: probit analysis
How it was run: as §1

[8] = as above; type: in vivo, Lolium multiflorum, Lolium rigidum; conditions: Lolium multiflorum, post-emergence, 504 h, read-out: Visual Growth Reduction (%) 21 Days After Application LOLSS
How it was run: as §1

[9] = Table 8, dose for 50 percent growth reduction, 21 d
[10] = Table 8, dose for 80 percent growth reduction, 21 d
[11] = post-emergence, 504 h, Table 8, post-emergent, 21 d, read-out: Visual Growth Reduction (%) 21 Days After Application LAMSS
[12] = Matricaria chamomilla, post-emergence, 504 h, Table 8, post-emergent, 21 d, read-out: Visual Growth Reduction (%) 21 Days After Application MATSS
[13] = Bassia scoparia, post-emergence, 504 h, Table 8, post-emergent, 21 d, read-out: Visual Growth Reduction (%) 21 Days After Application KCHSC
[14] = post-emergence, 504 h, read-out: Visual Growth Reduction (%) 21 Days After Application LAMSS
[15] = dose for growth reduction of 50 percent, 21 days after application
[16] = dose for growth reduction of 80 percent, 21 days after application
[17] = Matricaria chamomilla, post-emergence, 504 h, read-out: Visual Growth Reduction (%) 21 Days After Application MATSS
[18] = Bassia scoparia, post-emergence, 504 h, read-out: Visual Growth Reduction (%) 21 Days After Application KCHSC

SMILES	GR50 LAMSS (LAMSS; [9]) [g ai/ha]	GR80 LAMSS (LAMSS; [10]) [g ai/ha]	pest or weed control at 35 g/ha (LAMSS; [11]) [%]	pest or weed control at 70 g/ha (LAMSS; [11]) [%]	GR50 VERPE [1] [g ai/ha]	GR80 VERPE [1] [g ai/ha]	pest or weed control at 35 g/ha [1] [%]	pest or weed control at 70 g/ha [1] [%]	pest or weed control at 35 g/ha [2] [%]	pest or weed control at 70 g/ha [2] [%]	GR20 HORSS [2] [g ai/ha]	GR20 TRZSS [3] [g ai/ha]	pest or weed control at 35 g/ha [3] [%]	pest or weed control at 70 g/ha [3] [%]	pest or weed control at 35 g/ha [4] [%]	pest or weed control at 70 g/ha [4] [%]	GR50 SASKR [4] [g ai/ha]	GR80 SASKR [4] [g ai/ha]	GR50 VIOSS [5] [g ai/ha]	GR80 VIOSS [5] [g ai/ha]	other results
COc1c(N)nc(-c2ccc(Br)c(F)c2)nc1C(=O)O [Compound 113, 6-Amino-2-(4-bromo-3-fluorophenyl)-5-methoxypyrimidine-4-carboxylic acid]	1	4	95 to 100	95 to 100	3	18	85 to 94	85 to 94	85 to 94	95 to 100	1	1	85 to 94	85 to 94	75 to 84	85 to 94	5	36	4	11	pest or weed control at 35 g/ha [5]: 95 to 100%; pest or weed control at 70 g/ha [5]: 95 to 100%; pest or weed control at 35 g/ha [6, 12]: 85 to 94%; pest or weed control at 70 g/ha [6, 12]: 95 to 100%; GR50 MATSS [6, 9]: 4 g ai/ha; GR80 MATSS [6, 10]: 15 g ai/ha; pest or weed control at 35 g/ha [7, 13]: 95 to 100%; pest or weed control at 70 g/ha [7, 13]: 95 to 100%; GR50 KCHSC [7, 9]: 3 g ai/ha; GR80 KCHSC [7, 10]: 10 g ai/ha
COC(=O)c1nc(-c2ccc(F)cc2)c(F)c(N)c1Cl [Compound 204]																					pest or weed control at 35 g/ha (LAMSS; [14]): 85 to 94%; pest or weed control at 70 g/ha (LAMSS; [14]): 95 to 100%; pest or weed control at 140 g/ha (LAMSS; post-emergence, 504 h, 140 g ai/ha, read-out: Visual Growth Reduction (%) 21 Days After Application LAMSS): 95 to 100%; GR50 LAMSS (LAMSS; [15]): 1 g ai/ha; GR80 LAMSS (LAMSS; [16]): 8 g ai/ha; pest or weed control at 35 g/ha ([8]; 35 g ai/ha): 0 to 29%; pest or weed control at 70 g/ha ([8]; 70 g ai/ha): 0 to 29%; pest or weed control at 140 g/ha ([8]; 140 g ai/ha): 0 to 29%; pest or weed control at 35 g/ha [6, 17]: 0 to 29%; pest or weed control at 70 g/ha [6, 17]: 0 to 29%; pest or weed control at 140 g/ha ([6]; Matricaria chamomilla, post-emergence, 504 h, 140 g ai/ha, read-out: Visual Growth Reduction (%) 21 Days After Application MATSS): 0 to 29%; GR50 MATSS [6, 15]: >140 g ai/ha; GR80 MATSS [6, 16]: >140 g ai/ha; pest or weed control at 35 g/ha [7, 18]: 85 to 94%; pest or weed control at 70 g/ha [7, 18]: 95 to 100%; pest or weed control at 140 g/ha ([7]; Bassia scoparia, post-emergence, 504 h, 140 g ai/ha, read-out: Visual Growth Reduction (%) 21 Days After Application KCHSC): 95 to 100%; GR50 KCHSC [7, 15]: 2 g ai/ha; GR80 KCHSC [7, 16]: 9 g ai/ha
Nc1cc(-c2ccc(Br)c(F)c2)nc(C(=O)O)c1Cl [Compound 110, 4-Amino-6-(4-bromo-3-fluorophenyl)-3-chloropicolinic acid]	1	1	95 to 100	95 to 100	>140	>140	0 to 29	0 to 29	85 to 94	95 to 100	1	1	85 to 94	85 to 94	75 to 84	85 to 94	1	30	51	144	pest or weed control at 35 g/ha [5]: 30 to 44%; pest or weed control at 70 g/ha [5]: 60 to 74%; pest or weed control at 35 g/ha [6, 12]: 60 to 74%; pest or weed control at 70 g/ha [6, 12]: 85 to 94%; GR50 MATSS [6, 9]: 10 g ai/ha; GR80 MATSS [6, 10]: 37 g ai/ha; pest or weed control at 35 g/ha [7, 13]: 95 to 100%; pest or weed control at 70 g/ha [7, 13]: 95 to 100%; GR50 KCHSC [7, 9]: 1 g ai/ha; GR80 KCHSC [7, 10]: 1 g ai/ha
